Source: patent publication US20130137760A1, “GAMBOGIC AMINE, A SELECTIVE TRKA AGONIST WITH NEUROPROTECTIVE ACTIVITY” (EMORY UNIVERSITY, priority 2007, published 2013)

Tests used:
[1] = system: hippocampus; test: Kainic acid-elicited neuronal cell death in mouse brain (TUNEL, hippocampus); format: in vivo, C57BL/6 mice; details: KA alone, quantitative analysis of apoptosis
Description: Kainic acid (KA) is a potent agonist for the AMPA receptor. Peripheral injections of KA result in recurrent seizures and the subsequent degeneration of select populations of neurons in the hippocampus (Nadler et al., 1980; Schauwecker and Steward, 1997; Sperk et al., 1983). It has been shown that the activation of caspase-3 is a necessary component of KA-induced cell death (Faherty et al., 1999). To explore whether test compounds can block the neurotoxicity initiated by KA, the compounds can be subcutaneously injected (for example, at a concentration of 2 mg/kg) into C57BL/6 mice, followed by 25 mg/kg KA. In 5 days, the mice can be perfused and the brains cut to a thickness of 5 μm and mounted on slides.
Kainic acid (KA) is a potent agonist for the AMPA receptor. Peripheral injections of KA result in recurrent seizures and the subsequent degeneration of select populations of neurons in the hippocampus (Nadler et al., 1980; Schauwecker and Steward, 1997; Sperk et al., 1983). It has been shown that the activation of caspase-3 is a necessary component of KA-induced cell death (Faherty et al., 1999). To explore whether gambogic amines can block the neurotoxicity initiated by KA, one can subcutaneously inject 2 mg/kg of a gambogic amine into C57BL/6 mice, followed by 25 mg/kg KA. In 5 days, the mice can be perfused and the brains were cut to a thickness of 5 μm and mounted on slides. TUNEL staining can reveal whether KA provokes enormous apoptosis in the hippocampus, and whether this effect is substantially diminished by the gambogic amine.
Male C57BL/6 mice aged of 60 days can be injected subcutaneously (s.c.) with a single dose of either 30% ethanol in saline or KA (25 mg/kg) (Sigma, Mo.) or the gambogic amine (2 mg/kg) followed by KA. Animals can be continually monitored for 2 h for the onset of seizure activity. At 5 days following treatment, animals can be anesthetized and perfused with 4% paraformaldehyde in 0.1 M phosphate buffered saline. Brains can be removed, post-fixed overnight and processed for paraffin embedding. […]

[2] = system: T17 cells (TrkA stably transfected SN56 cells); test: Cell-based apoptotic assay: protection of TrkA-expressing T17 cells from staurosporine-initiated apoptosis, MR(DEVD)2 caspase-3 dye; design: species or system murine; details: for apoptosis inhibitory activity in T17 cells: 0.5 μM pre-incubation, then 1 μM STS for 9 h, compared with NGF
Description: In order to identify small molecules that mimic NGF and activate TrkA, we developed a cell-based apoptotic assay using a cell permeable fluorescent dye MR([…])2, which turns red upon caspase-3 cleavage in apoptotic cells. We utilized a murine cell line T17, which was derived from basal forebrain SN56 cells. T17 cells are TrkA stably transfected SN56 cells. The candidates selectively protecting T17 but not SN56 cells from the first round screen can then be subjected to neurite outgrowth assay for the secondary screen. The positive compounds can be analyzed for TrkA tyrosine phosphorylation, Akt and MAP kinases signaling cascade activation.
T17 cells can be cultured in 96-well plates and preincubated with 10 μM compounds for 30 min, followed by 1 μM staurosporine (STS) treatment for 9 h. MR(DEVD)2 can be introduced to the cells 1 h before examination under fluorescent microscope. The apoptotic cells are red, while live cells have no signal. […] Using the caspase-3-activated fluorescent dye as a visual assay, one can screen the gambogic amine compounds.
To compare the apoptosis inhibitory activity of various compounds, one can pre-incubate gambogic amines derivatives (0.5 μM) with T17 and SN56 cells, followed by 1 μM STS for 9 h. Quantitative analysis of the apoptosis inhibitory activities can determine whether the compounds protect SN56 cells from apoptosis.
T17 cells can be seeded in a 96-well plate at 10,000 cells/well in 100 μl complete medium. Cells can be incubated overnight, followed by 30 min pretreatment with 10 μM compounds in DMSO (10 mM stock concentration from The Spectrum Collection library). The cells can then be treated with 1 μM Staurosporine for 9 h. One h before the termination of the experiment, 10 μM MR(DEVD)2, a cell permeable caspase-3-activated fluorescent dye can be introduced. Cells can be fixed with 4% paraformaldehyde for 15 min. Cells can then be washed with PBS and incubated with 1 μg/ml of Hoechst 33342 for 10 min. Cover slides can then be washed with PBS, mounted, and examined using a fluorescence microscope.

[3] = Kasibhatla et al., 2005; cited from earlier work
[4] = system: Akt; test: Akt activation in primary hippocampal neurons; format: cell-based
Protocol: (§1) NGF triggers PI 3-kinase/Akt and Ras/MAP Kinase signaling cascades activation through the TrkA receptor. […] The cell lysates can be analyzed by immunoblotting with anti-phospho-Erk1/2 and phospho-Akt-473 antibodies, respectively. […] One can also extend the assays into primary hippocampal neurons. […] Time course assay with hippocampal neurons can show whether gambogic amines (0.5 μM) elicit Akt phosphorylation after 5 min treatment, and whether Akt activation increases after 10 min and is sustained for 60 min. One can also determine whether the gambogic amines provoke Akt activation in a dose-dependent manner.

[5] = system: TrkA; test: TrkA tyrosine phosphorylation in primary hippocampal neurons, anti-phospho-TrkA Y490 immunoblot; format: cell-based; details: 30 min
Description: NGF binds to receptor TrkA and elicits its dimerization and autophosphorylation on tyrosine residues. Numerous tyrosine residues on TrkA are phosphorylated upon NGF stimulation. For example, Y490 phosphorylation is required for Shc association and activation of MAP kinase signaling cascade. Y751 phosphorylation is essential for PI 3-kinase docking and activation. To evaluate whether gambogic amine compounds can also trigger TrkA tyrosine phosphorylation, one can treat primary hippocampal neurons with various drugs at 0.5 μM for 30 min. The cell lysates can be analyzed by immunoblotting with anti-phospho-TrkA Y490 antibody. […] To explore whether gambogic amines can trigger TrkA dimerization, one can cotransfect GFP-TrkA and HA-TrkA into HEK293 cells, and treat the cells with 0.5 μM gambogic amine for 30 min. Communoprecipitation assays can be used to determine whether gambogic amines provoke TrkA dimerization even more strongly than NGF. One can also evaluate whether the gambogic amines also elicit tyrosine phosphorylation in TrkA but not in TrkB or C receptors.

[6] = system: Erk1/2 and Akt; test: Erk1/2 and Akt phosphorylation in T17 cells, immunoblot; format: cell-based, murine; details: 30 min
Protocol: as §1

[7] = system: PC12 cells; test: Neurite outgrowth in PC12 cells; format: cell-based; details: after 5 days of treatment
Protocol: One of most prominent neurotrophic effects of NGF is to trigger neurite outgrowth in neuronal cells and incur differentiation. […] The cell medium containing the compounds can be replenished every other day. […] The gambogic amine compounds can similarly be evaluated for their ability to induce evident neurite outgrowth in PC12 cells. Dose-dependent assays can reveal whether 10-50 nM of gambogic amines are sufficient to provoke substantial neurite sprouting in PC12 cells.

## C=C(C)[C@H]1CN[C@H](C(=O)O)[C@H]1CC(=O)O [KA, Kainic acid]
[1]; CA1 region
  cell death in the CA1 region of the hippocampus: 47%
[1]; CA3 region
  cell death in the CA3 region of the hippocampus: 57%

## CC(C)=CCCC1(C)C=Cc2c(O)c3c(c(CC=C(C)C)c2O1)OC12C(=CC4CC1C(C)(C)OC2(C/C=C(/C)C(=O)O)C4O)C3=O (centres unmarked) [dihydrogambogic acid]
[2]
  apoptosis inhibitory activity in T17 cells: strongly suppress apoptosis in T17 cells with protective activities even stronger than NGF

## COC(=O)/C(C)=C\CC12OC(C)(C)C3CC(C=C4C(=O)c5c(OC)c6c(c(CC=C(C)C)c5OC431)OC(C)(CCC=C(C)C)C=C6)C2=O (centres unmarked) [dimethyl gambogate]
[2]
  apoptosis inhibitory activity in T17 cells: strongly suppress apoptosis in T17 cells with protective activities even stronger than NGF

## CC(C)=CCC[C@]1(C)C=Cc2c(O)c3c(c(CC=C(C)C)c2O1)O[C@]12C(=C[C@@H]4C[C@H]1C(C)(C)O[C@@]2(C/C=C(/C)C(=O)O)C4=O)C3=O [gambogic acid, Gambogic Acid]
[3]
  Kd of association with Transferrin: 2200 nM
[2]
  apoptosis inhibitory activity in T17 cells: strongly suppress apoptosis in T17 cells with protective activities even stronger than NGF

## NGF: nerve growth factor, binds mainly TrkA; positive control, from Roche
[4]
  Akt activation: evidently activates Akt
[5]
  TrkA phosphorylation (Y490): induces potent TrkA phosphorylation
[6]
  Erk1/2 and Akt phosphorylation: stimulates demonstrable Erk1/2 and Akt phosphorylation
[2]; positive control, 1 μM staurosporine for 9 h, MR(DEVD)2 dye
  red (apoptotic) cell numbers compared to DMSO control: substantially decreases the red cell numbers
[7]
  neurite sprouting in PC12 cells: pronounced neurite sprouting
